The values that follow come from publication PMC9505826, “A Peptide Inhibitor of the Human Cytomegalovirus Core Nuclear Egress Complex” (Pharmaceuticals, 2022).

A value given as a limit tells only on which side of the number the result lay.

Data set [1] concerns the target T1, HCMV pUL50–pUL53 interaction (Human cytomegalovirus, UniProt P16791).
T1 construct: Recombinant pUL50 and pUL53 were produced and purified as previously described; made in house
Briefly: pUL50-pUL53 inhibition assay (plate-based, anti-His-HRP detection). Type of data set: binding. Conditions: peptide serial dilutions starting at 10 µM. Here is the method: Inhibition assay. Recombinant pUL50 and pUL53 were produced and purified as previously described. High binding Immulon microtiter plates were coated with 100 µL pUL53 (1 µg/mL) in sodium carbonate buffer pH 9.5, overnight at 4 °C. After blocking with 200 µL 1% BSA in 0.1 M phosphate buffer, pH 7.2, for two hours, plates were incubated with 50 µL peptide in serial dilutions, starting at 10 µM, together with 50 µL His-tagged pUL50 (0.78 µg/mL) for two and a half hours. His-tagged pUL50 was detected using anti-His-HRP (Merck, Darmstadt, Germany, 1:100,000). All proteins and antibodies were in 0.1 M phosphate buffer, pH 7.2, containing 0.1% BSA and 0.01% Tween 20. Plates were washed four times with 0.01% Tween 20 in 0.1 M phosphate buffer, pH 7.2, after each incubation step. Plates were developed with o-phenylenediamine (OPD) (1 mg/mL) in the presence of 0.03% H2O2 for approximately 5 min in the dark. After the reaction was stopped with 50 µL 2 M H2SO4, absorbance was read at 492 nm. IC50 values were determined from the % inhibition data using the program GraphPad. Inhibition was calculated according to the following formula:% Inhibition = [1 − (Asample − Ablank1)/(A100% − Ablank2)] × 100 in which “100%” is a sample without inhibitor, “blank1” is a sample without pUL53, and “blank2” is a sample without pUL53 and without inhibitor.

A further data set concerns HCMV AD169. The class given is cell-based, human cytomegalovirus (HCMV strain AD169). Conditions: for effect on HCMV infection (in words): HFFs infected with HCMV AD169, qPCR of supernatants, concentrations up to 10 µM; for EC50: HFFs infected with HCMV AD169, MOI 0.1, peptides refreshed at 2, 5 and 7 d p.i., viral genome equivalents in supernatants at 8 d p.i. by qPCR, % of DMSO control, ± standard deviation, at least three independent experiments, read-out: EC50, antiviral effect. The method, then:
Primary human foreskin fibroblasts (HFFs) were cultivated in minimal essential medium (MEM). Cell culture media were supplemented with 1× GlutaMAXTM (35050038, Thermo Fisher Scientific), […] gentamicin and 10% fetal bovine serum (FBS, F7524, Sigma Aldrich). All cells were incubated at 37 °C, 5% CO2 and 80% humidity. For infection with human cytomegalovirus (HCMV strain AD169), 2 × 10^5 HFFs were seeded in 12-well plates for 1 day (d) prior to infection at a multiplicity of infection (MOI) of 0.1. After 90 min of viral absorption, cells were incubated with peptides in the culture media media, which was supplemented with 2.5% FBS, 1× GlutaMAX^TM and 10 µg/mL gentamicin, at the indicated concentrations at 37 °C for 4–8 days. Viral supernatants were collected at 4, 6 and 8 days post-infection (d.p.i.).
HFFs were seeded in 12-well plates, used for HCMV infection at a MOI of 0.1 and treated with the indicated concentrations of each peptide. […] The supernatants were centrifuged at 1500× g and digested with proteinase K at 56 °C for 1 h to release viral particles. The reactions were stopped at 95 °C for 5 min. The amount of extracellular viral genomic loads was assessed in […] of each sample by real-time PCR (TaqMan-PCR). Two primers, namely 5′CMV ([…]) and 3′CMV ([…]), which anneal to a sequence within the major immediate early gene region of HCMV, were obtained to amplify and quantify the viral genome. In addition, a FAM/TAMRA-labeled probe was used for detection. The viral load of a sample treated with DMSO only served as a negative control. HCMV genome equivalents from peptide-treated viral supernatants were calculated as % of the negative control.
(In general: In qPCR the cycle at which signal appears reflects the starting amount.)

The next data set concerns HFF cells. Briefly: Neutral Red cytotoxicity assay. Type of data set: cell-based, human. Conditions: peptides 0.008 µM to 100 µM, refreshed on day 5, read on day 7 of peptide treatment. Here is the method:
HFF cells were cultivated in 96-well plate with a density of 1.35 × 10^4 cells per well and incubated at 37 °C for 24 h. The cultured HFF cells were treated with peptides, at concentrations ranging from 0.008 µM to 100 µM, and incubated at 37 °C. On day 5, peptides were refreshed in the culture media and incubation was continued until day 7. A sample without compound (DMSO) served as a negative control, and a sample with 1 µM staurosporine (STP) as a positive control. On day seven, neutral red solution (40 µg/mL, Sigma Aldrich, N2889) was added to cultivated cells and incubated at 37 °C for […], followed by addition of destaining solution (ethanol/water/acetic acid, 50:49:1). Fluorescence was read at excitation/emission at 560/630 nm to quantify the uptake of neutral red.

T1 sequence (P16791 1-175): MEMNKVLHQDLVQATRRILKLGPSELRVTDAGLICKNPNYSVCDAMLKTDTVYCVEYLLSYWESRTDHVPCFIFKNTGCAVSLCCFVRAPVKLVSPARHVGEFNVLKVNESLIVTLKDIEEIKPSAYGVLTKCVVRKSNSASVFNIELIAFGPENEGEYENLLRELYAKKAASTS

Turning to `CC(=O)N[C@@H](CCCNC(=N)N)C(=O)N[C@@H](CO)C(=O)N[C@@H](CC(C)C)C(=O)N[C@@H](CC(C)C)C(=O)N[C@@H](CCCNC(=N)N)C(=O)N[C@@H](CCCCN)C(=O)N[C@@H](CCCNC(=N)N)C(=O)N[C@@H](CCCNC(=N)N)C(=O)N[C@@H](CCC(N)=O)C(=O)N[C@@H](CCCNC(=N)N)C(=O)NCCOCCOCC(=O)N[C@@H](Cc1ccc(O)cc1)C(=O)NCC(=O)N[C@@H](CCCNC(=N)N)C(=O)N[C@@H](CCCCN)C(=O)N[C@@H](CCCCN)C(=O)N[C@@H](CCCNC(=N)N)C(=O)N[C@@H](CCCNC(=N)N)C(=O)N[C@@H](CCC(N)=O)C(=O)N[C@@H](CCCNC(=N)N)C(=O)N[C@@H](CCCNC(=N)N)C(=O)N[C@@H](CCCNC(=N)N)C(=O)N1CCC[C@H]1C(=O)N1CCC[C@H]1C(N)=O` [NLS-CPP], the “inhibitory effect on the pUL50-pUL53 interaction (in words)” value in data set [1] was “completely inactive”. Moreover, the “effect on HCMV infection (in words)” value in the data set with HCMV AD169 was “no significant effect”.
For orientation: EC50 means the concentration at which the effect is half-maximal. Regarding `CC[C@H](C)[C@H](NC(=O)[C@H](C)NC(=O)[C@H](CCSC)NC(=O)[C@H](CCCCN)NC(=O)[C@H](CCSC)NC(=O)[C@H](CCSC)NC(=O)[C@H](CC(N)=O)NC(=O)[C@H](CC(C)C)NC(=O)[C@H](Cc1ccc(O)cc1)NC(=O)[C@H](CCCCN)NC(=O)[C@H](CC(C)C)NC(=O)[C@H](CCC(=O)O)NC(=O)[C@H](CC(C)C)NC(=O)[C@H](CCC(=O)O)NC(=O)[C@@H]1CCCN1C(=O)[C@H](Cc1c[nH]cn1)NC(=O)[C@H](CCC(=O)O)NC(=O)[C@H](CCCNC(=N)N)NC(=O)[C@H](Cc1ccccc1)NC(=O)[C@@H](NC(=O)[C@H](CC(=O)O)NC(=O)[C@H](Cc1c[nH]cn1)NC(=O)[C@H](CC(C)C)NC(=O)[C@H](CC(=O)O)NC(=O)[C@H](Cc1c[nH]cn1)NC(=O)[C@H](CC(C)C)NC(=O)[C@@H](NC(=O)[C@H](CC(C)C)NC(C)=O)[C@@H](C)O)[C@@H](C)CC)C(=O)N[C@H](C(N)=O)[C@@H](C)O` [Hook peptide], in the data set with HCMV AD169, the EC50 was greater than 10 µM and the “effect on HCMV infection (in words)” value is on record as “no significant effect”. The “CC50, cytotoxic effect” value in the data set on HFF cells is greater than 100 µM.
For `CC[C@H](C)[C@H](NC(=O)[C@H](C)NC(=O)[C@H](CCSC)NC(=O)[C@H](CCCCN)NC(=O)[C@H](CCSC)NC(=O)[C@H](CCSC)NC(=O)[C@H](CC(N)=O)NC(=O)[C@H](CC(C)C)NC(=O)[C@H](Cc1ccc(O)cc1)NC(=O)[C@H](CCCCN)NC(=O)[C@H](CC(C)C)NC(=O)[C@H](CCC(=O)O)NC(=O)[C@H](CC(C)C)NC(=O)[C@H](CCC(=O)O)NC(=O)[C@@H]1CCCN1C(=O)[C@H](Cc1c[nH]cn1)NC(=O)[C@H](CCC(=O)O)NC(=O)[C@H](CCCNC(=N)N)NC(=O)[C@H](Cc1ccccc1)NC(=O)[C@@H](NC(=O)[C@H](CC(=O)O)NC(=O)[C@H](Cc1c[nH]cn1)NC(=O)[C@H](CC(C)C)NC(=O)[C@H](CC(=O)O)NC(=O)[C@H](Cc1c[nH]cn1)NC(=O)[C@H](CC(C)C)NC(=O)[C@@H](NC(=O)[C@H](CC(C)C)NC(=O)COCCOCCNC(=O)[C@@H]1CCCN1C(=O)[C@@H]1CCCN1C(=O)[C@H](CCCNC(=N)N)NC(=O)[C@H](CCCNC(=N)N)NC(=O)[C@H](CCCNC(=N)N)NC(=O)[C@H](CCC(N)=O)NC(=O)[C@H](CCCNC(=N)N)NC(=O)[C@H](CCCNC(=N)N)NC(=O)[C@H](CCCCN)NC(=O)[C@H](CCCCN)NC(=O)[C@H](CCCNC(=N)N)NC(=O)CNC(=O)[C@H](Cc1ccc(O)cc1)NC(=O)COCCOCCNC(=O)[C@H](CCCNC(=N)N)NC(=O)[C@H](CCC(N)=O)NC(=O)[C@H](CCCNC(=N)N)NC(=O)[C@H](CCCNC(=N)N)NC(=O)[C@H](CCCCN)NC(=O)[C@H](CCCNC(=N)N)NC(=O)[C@H](CC(C)C)NC(=O)[C@H](CC(C)C)NC(=O)[C@H](CO)NC(=O)[C@H](CCCNC(=N)N)NC(C)=O)[C@@H](C)O)[C@@H](C)CC)C(=O)N[C@H](C(N)=O)[C@@H](C)O` [NLS-CPP-Hook], in the data set with HCMV AD169, the 50% effective concentration (EC50) amounted to 5.6 ± 0.78 µM. Further, in the data set with HFF cells, the “CC50, cytotoxic effect” value is given as 44.2 ± 6.9 µM.
